In experiment [1] the test system is peptide-pulsed C1R-A33. Put plainly: IFN-gamma ELISA of CTL lines and CTL clones (HLA-A*33:03). Particulars: listed as MPHOSPH1-A33-9-608. It is filed as cell-based, human. The procedure: (§1) CTLs were propagated using methods similar to those reported by Riddell et al. (Walter E A et al., N Engl J Med 1995, 333(16): 1038-44; Riddell S R et al., Nat Med 1996, 2(2): 216-23). The CTLs were cultured in 25 ml 5% ABS/AIM-V medium together with two types of Mitomycin C-treated human B lymphoblastoid cell lines (5×10^6 cells/25 ml medium each) and an anti-CD3 antibody (final concentration: 40 ng/ml). On the day after beginning of the culturing, IL-2 (final concentration: 120 IU/ml) was added to the culture. On days 5, 8 and 11, the medium was changed to a 5% ABS/AIM-V medium containing IL-2 (final concentration: 30 IU/ml) (Tanaka H et al., Br J Cancer 2001, 84(1): 94-9; Umano Y et al., Br J Cancer 2001, 84(8): 1052-7; Uchida N et al., Clin Cancer Res 2004, 10(24): 8577-86; Suda T et al., Cancer Sci 2006, 97(5): 411-9; Watanabe T et al., Cancer Sci 2005, 96(8): 498-506).
After induction of CTLs in vitro, the CTLs were seeded onto 96 round-bottomed microtiter plates (Nalge Nunc International) at 1 cell/well or 10 cells/well. The CTLs were cultured with two types of Mitomycin C-treated human B lymphoblastoid cell lines (1×10^4 cells/well each) in a total of 150 micro-l/well 5% ABS/AIM-V medium with an anti-CD3 antibody (final concentration: 30 ng/ml) and IL-2 (final concentration: 125 IU/ml). Ten days later, 50 micro-l 5% ABS/AIM-V medium containing 500 IU/ml IL-2 was added to the culture.
(§2) Peptide-pulsed C1R-A33 (1×10^4 cells/well) was prepared as the target cell. The IFN-gamma ELISPOT assay and IFN-gamma ELISA assay were performed according to the assay kit manufacturer's manual.
On the technique in general: An ELISA detects its analyte on a solid surface through an enzyme-linked reagent.

In experiment [2] the test system is COS7 cells expressing MPHOSPH1 and HLA-A*33:03. The experiment in a line: IFN-gamma production of CTL clone against target cells expressing MPHOSPH1 and HLA-A*33:03. The experiment is classed as cell-based, African green monkey. On the procedure: as §2
A cDNA encoding the MPHOSPH1 or HLA-A*33:03 gene was amplified by PCR. The PCR-amplified product was each incorporated into an expression vector. Either or both of the MPHOSPH1 gene-expressing vector and the HLA-A*33:03 gene-expressing vector were introduced into COS7, which is a cell line negative for HLA, using Lipofectamine 2000 (Invitrogen). On the day after gene introduction, COS7 cells were detached and harvested using versene (Invitrogen), and used as the target cell for confirmation of IFN-gamma production (5×10^4 cells/well).

The subject of experiment [3] is peptide-pulsed C1R-A33. Put plainly: In vitro CTL induction, IFN-gamma ELISPOT assay (HLA-A*33:03). It is filed as cell-based, human. The note with it: CD8 positive T cells of HLA-A*33:03-positive donors after three stimulations with peptide-pulsed DCs; against peptide-pulsed C1R-A33; listed as MPHOSPH1-A33-9-608. The procedure: (§3) Monocyte-derived dendritic cells (DCs) were used as the antigen-presenting cell to induce a specific cytotoxic T lymphocyte (CTL) response against peptides presented on human leukocyte antigens (HLAs). As already reported in literatures, DCs were generated in vitro (Nakahara S et al., Cancer Res 2003, 63(14): 4112-8). Specifically, peripheral-blood mononuclear cells (PBMCs) collected from healthy volunteers (HLA-A*33:03-positive) with the Ficoll-Paque plus solution (Pharmacia) were seeded in plastic tissue culture dishes (Corning) to let the monocytes in the PBMCs adhere to the dishes. This was cultured in the presence of 1000 IU/ml granulocyte macrophage colony-stimulating factor (R&D System) and 1000 IU/ml interleukin (IL)-4 (R&D System) for seven days. An AIM-V medium (Invitrogen) containing 5% inactivated AB-type serum (ABS) was used as the medium. DCs that were induced to differentiate from monocytes using the cytokines were pulsed with 20 micro-g/ml of each synthesized peptide (37 degrees C., three hours). Peptide pulsing was carried out in an AIM-V medium containing 3 micro-g/ml beta 2-microglobulin. These peptide-pulsed DCs were inactivated by X-ray irradiation (20 Gy), mixed in a 1:20 ratio with autologous CD8 positive T cells obtained by positive selection using the CD8 Positive Isolation Kit (Invitrogen) (1.5×10^4 DCs and 3×10^5 CD8 positive T cells), and cultured in a 48-well plate (Corning). Each well contained 0.5 ml of the 5% ABS/AIM-V medium, and IL-7 (R&D System) was added there (final concentration: 10 ng/ml). Two days after the start of the culture, IL-2 (Novartis) was added (final concentration: 20 IU/ml). On day 7 and day 14 of culture, the CD8 positive T cells were further stimulated with peptide-pulsed DCs. The DCs were prepared at the time of use by the same method as above. After day 21 (after three DC stimulations), IFN-gamma production against the peptide-pulsed C1R-A33 was confirmed using human interferon (IFN)-gamma enzyme-linked immunospot (ELISPOT) assay (Tanaka H et al., Br J Cancer 2001, 84(1): 94-9; Umano Y et al., Br J Cancer 2001, 84(8): 1052-7: Uchida N et al., Clin Cancer Res 2004, 10(24): 8577-86; Suda T et al., Cancer Sci 2006, 97(5): 411-9; Watanabe T et al., Cancer Sci 2005, 96(8): 498-506).
as §2

Experiment [4] concerns peptide-pulsed C1R-A11. The experiment in a line: IFN-gamma ELISA of CTL lines and CTL clones (HLA-A*11:01). It is filed as cell-based, human. Particulars: listed as MPHOSPH1-A11-10-1546. On the procedure: as §1
After induction of CTLs in vitro, the CTLs were seeded onto 96 round-bottomed microtiter plates (Nalge Nunc International) at 1 cell/well or 10 cells/well. The CTLs were cultured with two types of Mitomycin C-treated human B lymphoblastoid cell lines (1×10^4 cells/well each) in a total of 150 micro-1/well 5% ABS/AIM-V medium with an anti-CD3 antibody (final concentration: 30 ng/ml) and IL-2 (final concentration: 125 IU/ml). Ten days later, 50 micro-15% ABS/AIM-V medium containing 500 IU/ml IL-2 was added to the culture. […].
(§4) Peptide-pulsed C1R-A11 (1×10^4 cells/well) was prepared as the target cell. The IFN-gamma ELISPOT assay and IFN-gamma ELISA were performed according to the assay kit manufacturer's manual.

The test system of experiment [5] is peptide-pulsed C1R-A11. The experiment in a line: In vitro CTL induction, IFN-gamma ELISPOT assay (HLA-A*11:01). The experiment is classed as cell-based, human. The note with it: CD8 positive T cells of HLA-A*11:01-positive donors after three stimulations with peptide-pulsed DCs; against peptide-pulsed C1R-A11; listed as MPHOSPH1-A11-10-1546. On the procedure:
as §3, with “(HLA-A*11:01-positive)” for “(HLA-A*33:03-positive)”, “thereto” for “there”, “C1R-A11” for “C1R-A33”, “1052-7;” for “1052-7:”
as §4

Experiment [6] has as its system COS7 cells expressing MPHOSPH1 and HLA-A*11:01. The experiment in a line: IFN-gamma production of CTL clone against target cells expressing MPHOSPH1 and HLA-A*11:01. It is filed as cell-based, African green monkey. The procedure: as §4
A cDNA encoding the MPHOSPH1 or HLA-A*11:01 gene was amplified by PCR. The PCR-amplified product was each incorporated into an expression vector. Either or both of the MPHOSPH1 gene-expressing vector and the HLA-A*11:01 gene-expressing vector were introduced into COS7, which is a cell line negative for HLA, using Lipofectamine 2000 (Invitrogen) following the manufacturer's recommended protocol. On the day after gene introduction, COS7 cells were detached and harvested using versene (Invitrogen), and used as the target cell for confirmation of IFN-gamma production (5×10^4 cells/well).

Entries after “also recorded” stand apart in the source; their conditions may differ.

With “EFTQYWAQR (a peptide derived from MPHOSPH1) [SEQ ID NO: 118]”, the “peptide-specific IFN-gamma production of CTL clone (ELISA)” value in the experiment with peptide-pulsed C1R-A33 [1] (CTL clone by limiting dilution, against C1R-A33 pulsed with the peptide) is “showed a peptide-specific IFN-gamma production”. The “IFN-gamma production by CTL line (ELISA)” value in the experiment with peptide-pulsed C1R-A33 [1] (CTL line against C1R-A33 pulsed with the peptide) is “CTL lines that produce IFN-gamma in a peptide-specific manner were established; also recorded: observed”. Also, the “IFN-gamma production of peptide-specific CTL clone” value is on record as “showed IFN-gamma production” in experiment [2] (against COS7 cells expressing both MPHOSPH1 and HLA-A*33:03); “a significant IFN-gamma production was not shown; also recorded: a significant IFN-gamma production was not observed” in experiment [2] (against negative control COS7 cells expressing either one of MPHOSPH1 and HLA-A*33:03, listed as MPHOSPH1-A33-9-608). In the experiment with peptide-pulsed C1R-A33 [3], the “peptide-specific IFN-gamma production (ELISPOT)” value is on record as “Peptide-specific IFN-gamma production was observed”.

As for “STSFEISRNK (a peptide derived from MPHOSPH1) [SEQ ID NO: 52]”, the “peptide-specific IFN-gamma production of CTL clone (ELISA)” value in the experiment with peptide-pulsed C1R-A11 [4] (CTL clone by limiting dilution, against C1R-A11 pulsed with the peptide) is “showed a peptide-specific IFN-gamma production”. For the same sequence, the “IFN-gamma production by CTL line (ELISA)” value in the experiment on peptide-pulsed C1R-A11 [4] (CTL line against C1R-A11 pulsed with the peptide) is reported as “CTL lines that produce IFN-gamma in a peptide-specific manner were established; also recorded: observed”. In the experiment on peptide-pulsed C1R-A11 [5], the “peptide-specific IFN-gamma production (ELISPOT)” value is “Peptide-specific IFN-gamma production was observed”. The “IFN-gamma production of peptide-specific CTL clone” value in experiment [6] (against COS7 cells expressing both MPHOSPH1 and HLA-A*11:01) is “showed IFN-gamma production”; in experiment [6] (against negative control COS7 cells expressing either one of MPHOSPH1 and HLA-A*11:01, listed as MPHOSPH1-A11-10-1546) it was “a significant IFN-gamma production was not shown; also recorded: a significant IFN-gamma production was not observed”.

The values above are taken from patent US10793599B2, “MPHOSPH1-derived peptide, and vaccine including same” (OncoTherapy Science, Inc., priority 2015, dated 2020).
